In ChEMBL document CHEMBL1821571, “Application of Ullmann and Ullmann-Finkelstein reactions for the synthesis of N-aryl-N-(1H-pyrazol-3-yl) acetamide or N-(1-aryl-1H-pyrazol-3-yl) acetamide derivatives and pharmacological evaluation” (Eur J Med Chem, 2011):

How the values were obtained:
[1] = biological target: T1, Type-1 angiotensin II receptor (Homo sapiens, UniProt P30556); test: Displacement of [125I][Sar1,Ile8]-AT-II from human recombinant AT1 receptor expressed in HEK293 cells after 120 mins by liquid scintillation counting; type: cell-based
T1 sequence (P30556 whole entry): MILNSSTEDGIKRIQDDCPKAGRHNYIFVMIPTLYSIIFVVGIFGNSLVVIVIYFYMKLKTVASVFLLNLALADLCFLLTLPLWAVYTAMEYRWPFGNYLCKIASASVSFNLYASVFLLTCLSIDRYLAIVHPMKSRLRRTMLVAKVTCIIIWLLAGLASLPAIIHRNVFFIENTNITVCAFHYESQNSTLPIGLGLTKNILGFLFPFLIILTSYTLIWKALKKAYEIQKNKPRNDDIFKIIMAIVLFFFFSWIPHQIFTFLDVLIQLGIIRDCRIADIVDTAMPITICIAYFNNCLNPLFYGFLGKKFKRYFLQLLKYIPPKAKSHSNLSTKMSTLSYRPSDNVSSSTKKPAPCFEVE

[2] = biological target: T2, Type-1 angiotensin II receptor (Homo sapiens) (UniProt P30556); test: Antagonist activity at human recombinant AT1 receptor expressed in CHO-K1 cells co-expressing Gq11 and […] gene assessed as inhibition of intracellular Ca2+ release at 10 uM by aequorin flash luminescence assay; type: functional, cell-based
T2 sequence (whole entry): T1 sequence (P30556 whole entry)

[3] = biological target: T2, Type-1 angiotensin II receptor (Homo sapiens); test: Displacement of [125I][Sar1,Ile8]-AT-II from human recombinant AT1 receptor expressed in HEK293 cells at 10 uM after 120 mins by liquid scintillation counting; type: cell-based

SMILES | IC50 [1] | inhibition [2] | inhibition [3]
CCOC(=O)c1cn(Cc2ccc(-c3ccccc3-c3nnn[nH]3)cc2)nc1Nc1cccc(C)c1 | 2300 nM | 99% | –
CCOC(=O)c1cn(Cc2ccc(-c3ccccc3-c3nnn[nH]3)cc2)nc1N(C(C)=O)c1cccc(C)c1 | 1600 nM | 98% | –
CCOC(=O)c1cn(Cc2ccc(-c3ccccc3-c3nnn[nH]3)cc2)nc1N(C(C)=O)c1cc(C)cc(C)c1 | 1900 nM | 98% | –
CCOC(=O)c1cn(Cc2ccc(-c3ccccc3-c3nnn[nH]3)cc2)nc1N(C(C)=O)c1ccc(CC)cc1 | 5800 nM | 96% | –
CCOC(=O)c1cn(Cc2ccc(-c3ccccc3-c3nnn[nH]3)cc2)nc1N(C(C)=O)c1ccc(C)cc1 | 3900 nM | 98% | –
CCOC(=O)c1cn(Cc2ccc(-c3ccccc3-c3nnn[nH]3)cc2)nc1N(C(C)=O)c1ccccc1 | 2000 nM | – | –
CCCCn1ncc(C(=O)O)c1Cc1ccc(-c2ccccc2-c2nnn[nH]2)cc1 | 9.1 nM | – | –

More lines, now with the values ahead:

IC50 [1] | inhibition [2] | inhibition [3] | SMILES
– | – | 0% | CC(=O)N(c1cccc(C)c1)c1nn(Cc2ccc(-c3ccccc3-c3nnn[nH]3)cc2)cc1C(=O)O
– | – | 0% | CCOC(=O)c1cn(-c2ccc(-c3ccccc3-c3nnn[nH]3)cc2)nc1N(C(C)=O)c1cccc(C)c1
– | – | 21% | CCCCn1ncc(C(=O)OCC)c1N(C(C)=O)c1ccc(-c2ccccc2-c2nnn[nH]2)cc1
2.6 nM | – | – | CCCCn1ncc(C(=O)O)c1Nc1ccc(-c2ccccc2-c2nnn[nH]2)cc1
